Reference: US9540664B2, “Systems and methods for improving ethanol yield” (POET Research, Inc, priority 2011, dated 2017)
Read-outs that look alike come from different tables or passages of the source.

Tests used:
yeast [1] = details: 20% w/v sucrose
Experimental: For this example, a laboratory media with sucrose was used. The media used was Yeast extract-Peptone (YP) broth supplemented with 20% w/v (200 g/L) sucrose. An acetic acid dose response (at 500, 1000, 1500, 2000, 2500, and 3000 ppm) was conducted. Control with no added acetic acid was also included. The fermenters were pH adjusted to 4.5 and after yeast inoculation the fermentations were carried out for 30 hours at 32° C. After 30 h, samples were withdrawn and analyzed for sugars, organic acids, and ethanol. Samples were also withdrawn at 24 h and yeast growth was monitored by optical density measurement at 600 nm.

yeast [2] = details: 24 hours at 88° F.
Experimental: The samples were serially diluted and appropriate dilutions were plated on to Yeast extract-Malt extract (YM) agar plates. The plates were incubated at 30° C. and the colonies formed were counted after 48 h. The results were expressed as colony forming units (CFU) per mL.
Samples tested include a control with no acetic acid addition, and samples treated at 1200 ppm and 2400 ppm respectively.

yeast [3] = system: yeast
Experimental: The entire experiment was conducted in duplicate.
In this experiment, corn that was ground using a hammer mill to >90% fines was obtained from a nearby biorefinery. […] The slurry (˜70 mL) was prepared by weighing out the appropriate amount of corn and water into each individual reactor. Lactoside247™ was added at 2.5 ppm to prevent any lactic acid bacterial contamination. Urea was added ˜0.24 g/L (4 mM) for a nitrogen source.
A raw starch hydrolyzing enzyme blend was added at 0.2 g/L. Everything was added to the reactor in such a way that the final volume in the reactor was 70 mL. […] (88° F.). […] (82° F.). Samples were withdrawn at 0, 24, 48, 72, and 88 hr of fermentation and analyzed for sugars, glycerol, organic acids and ethanol using HPLC.
About 4 mL of sample was withdrawn at each time point. These samples were centrifuged at 4500 rpm for 2 min. The supernatant was then filtered through a 0.2 μpore size filter into HPLC vials. […] An aliquot (5 μL) of the sample was injected by the auto-injector onto a reverse phase column (HPX-87H from BioRad Laboratories) maintained at 50° C. Aqueous sulfuric acid at 0.005M was used as the mobile phase (eluent). […] The components (sugars, organic acids, and ethanol) were identified and quantified using Waters Empower software.

yeast [4] = details: 320 gal per 720,000 gal or 250 gal per 550,000 gal fermentor, added 1.5 hours into fill, 36% dry solids
Experimental: In commercial ethanol production facilities, acetic acid is thought to be inhibitory to yeast growth and fermentation. […] The dosage of acetic acid used is 320 gal per 720,000 gal fermentor or 250 gal per 550,000 gal fermentor and the acetic acid is added at 1.5 hours into fill of the fermentor (which would be about 1 hour after yeast inoculation from the yeast conditioning tank). […] A few batches were conducted with added acetic acid (primed) and a few batches were operated normally without additional acetic acid.

CC(=O)O [acetic acid]
effect on ethanol conversion efficiency (yeast [1]; above 2500 ppm acetic acid, pH 4.5): inhibitory to fermentation | effect on ethanol conversion efficiency (yeast [1]; initial acetic acid between 2000 and 2500 ppm, pH 4.5, 30 hours at 32° C): stimulatory effect | reduction in cell counts (yeast [2]; initial acetic acid 1200 ppm): About 24% | reduction in cell counts (yeast [2]; initial acetic acid 2400 ppm): ~32% | effect on ethanol titers (yeast [3]; 0.12% to 0.24% (1200-2400 ppm) acetic acid, initial pH 4.7 or 5.2): increased ethanol titers | effect on ethanol production (yeast [3]; highest concentration tested 0.37% w/v, especially at pH 4.2): inhibitory effect | effect on ethanol production (yeast [3]; initial pH 4.2): No major benefits | maximum reduction in glycerol (yeast [3]; initial pH 4.7, initial acetic acid 0.24% w/v): over 50% | highest ethanol titer (yeast [3]; initial pH 4.7, initial acetic acid 0.24% w/v, 36% dry solids, 88 hr fermentation): 20.5 % v/v | ethanol production, primed vs no priming (yeast [4]): increased ethanol production | glycerol production, primed vs no priming (yeast [4]): decreases glycerol production significantly
